# Reference: ChEMBL document CHEMBL1201862, “PubChem BioAssay data set” (2004)
# The source made the active and inactive calls.
# How the values were obtained:
# Caspase-3 = target: T1, Caspase-3 (Homo sapiens, UniProt P42574); format: functional;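 also: Dose-response selectivity test against caspase-3 for candidate inhibitors of sentrin-specific proteases (SENPs)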
# T1 sequence (P42574 whole entry): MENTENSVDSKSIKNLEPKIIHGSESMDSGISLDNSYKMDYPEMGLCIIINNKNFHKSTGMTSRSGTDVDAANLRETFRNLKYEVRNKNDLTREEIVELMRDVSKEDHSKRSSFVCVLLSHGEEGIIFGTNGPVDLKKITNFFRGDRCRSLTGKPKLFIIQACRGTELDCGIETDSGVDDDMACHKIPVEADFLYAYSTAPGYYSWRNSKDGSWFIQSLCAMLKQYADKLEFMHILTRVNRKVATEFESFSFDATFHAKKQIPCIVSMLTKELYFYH
# [1] = target: T2, Sentrin-specific protease 7 (Homo sapiens, UniProt Q9BQF6); format: functional;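 also: Luminescence-based dose-response confirmation of ultra-high-throughput screening hits, measuring inhibition of SENP7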
# T2 sequence (Q9BQF6 whole entry): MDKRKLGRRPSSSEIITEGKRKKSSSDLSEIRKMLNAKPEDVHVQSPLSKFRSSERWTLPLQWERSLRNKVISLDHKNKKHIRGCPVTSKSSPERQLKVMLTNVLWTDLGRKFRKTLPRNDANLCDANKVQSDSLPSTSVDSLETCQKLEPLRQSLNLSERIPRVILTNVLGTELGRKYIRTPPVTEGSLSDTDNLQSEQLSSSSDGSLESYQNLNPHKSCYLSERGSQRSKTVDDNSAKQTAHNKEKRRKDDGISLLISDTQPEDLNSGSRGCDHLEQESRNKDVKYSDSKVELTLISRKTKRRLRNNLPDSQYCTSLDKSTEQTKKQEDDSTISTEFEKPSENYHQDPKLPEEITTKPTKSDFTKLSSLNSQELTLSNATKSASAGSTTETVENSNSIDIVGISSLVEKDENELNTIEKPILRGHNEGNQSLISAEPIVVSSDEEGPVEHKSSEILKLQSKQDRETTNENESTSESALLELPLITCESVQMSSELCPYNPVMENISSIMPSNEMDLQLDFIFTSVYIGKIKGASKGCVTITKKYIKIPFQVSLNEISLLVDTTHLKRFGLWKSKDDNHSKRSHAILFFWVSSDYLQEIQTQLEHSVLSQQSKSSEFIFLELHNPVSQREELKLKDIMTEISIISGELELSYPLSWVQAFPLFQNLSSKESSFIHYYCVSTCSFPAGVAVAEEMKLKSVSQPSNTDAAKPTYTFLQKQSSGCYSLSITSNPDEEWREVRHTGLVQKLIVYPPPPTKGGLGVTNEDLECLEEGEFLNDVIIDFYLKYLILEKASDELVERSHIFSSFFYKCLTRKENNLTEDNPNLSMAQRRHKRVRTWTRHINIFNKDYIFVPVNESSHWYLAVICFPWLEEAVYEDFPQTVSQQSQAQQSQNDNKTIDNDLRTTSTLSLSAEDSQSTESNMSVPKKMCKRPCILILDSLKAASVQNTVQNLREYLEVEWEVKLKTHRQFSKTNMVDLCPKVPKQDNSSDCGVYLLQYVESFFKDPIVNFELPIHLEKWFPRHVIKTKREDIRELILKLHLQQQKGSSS
# [2] = target: T3, Heat shock factor protein 1 (Mus musculus, UniProt P38532); assay: enhancement of HSF1-driven luciferase signal – cell-based, NIH3T3, luminescence, dose retest, confirmation (AID 435004); format: functional;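 also: stress induced by proteasome inhibitor MG132 added 30 min after compound; luciferase reporter driven by HSF1 response element in NIH3T3 cells; actives raise luminescence as potentiators of the MG132 stress response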
# T3 sequence (P38532 whole entry): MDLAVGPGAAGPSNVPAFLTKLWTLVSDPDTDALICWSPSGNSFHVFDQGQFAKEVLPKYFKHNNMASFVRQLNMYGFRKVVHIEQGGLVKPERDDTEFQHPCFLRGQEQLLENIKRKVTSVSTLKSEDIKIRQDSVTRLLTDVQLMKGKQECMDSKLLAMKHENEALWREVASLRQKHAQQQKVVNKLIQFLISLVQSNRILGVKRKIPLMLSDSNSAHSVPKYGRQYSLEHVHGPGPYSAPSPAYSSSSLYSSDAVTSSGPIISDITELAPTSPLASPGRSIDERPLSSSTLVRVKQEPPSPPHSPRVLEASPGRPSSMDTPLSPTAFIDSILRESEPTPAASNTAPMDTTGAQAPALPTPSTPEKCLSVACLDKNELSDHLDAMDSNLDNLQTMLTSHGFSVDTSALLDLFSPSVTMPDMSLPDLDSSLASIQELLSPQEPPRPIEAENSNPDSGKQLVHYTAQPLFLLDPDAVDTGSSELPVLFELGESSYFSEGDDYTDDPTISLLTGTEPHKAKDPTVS
# [3] = target: T4, Sentrin-specific protease 6 (Homo sapiens, UniProt Q9GZR1); format: functional;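 also: Luminescence-based dose-response confirmatory assay of SENP6 inhibition, following up an ultra-high-throughput screen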
# T4 sequence (Q9GZR1 whole entry): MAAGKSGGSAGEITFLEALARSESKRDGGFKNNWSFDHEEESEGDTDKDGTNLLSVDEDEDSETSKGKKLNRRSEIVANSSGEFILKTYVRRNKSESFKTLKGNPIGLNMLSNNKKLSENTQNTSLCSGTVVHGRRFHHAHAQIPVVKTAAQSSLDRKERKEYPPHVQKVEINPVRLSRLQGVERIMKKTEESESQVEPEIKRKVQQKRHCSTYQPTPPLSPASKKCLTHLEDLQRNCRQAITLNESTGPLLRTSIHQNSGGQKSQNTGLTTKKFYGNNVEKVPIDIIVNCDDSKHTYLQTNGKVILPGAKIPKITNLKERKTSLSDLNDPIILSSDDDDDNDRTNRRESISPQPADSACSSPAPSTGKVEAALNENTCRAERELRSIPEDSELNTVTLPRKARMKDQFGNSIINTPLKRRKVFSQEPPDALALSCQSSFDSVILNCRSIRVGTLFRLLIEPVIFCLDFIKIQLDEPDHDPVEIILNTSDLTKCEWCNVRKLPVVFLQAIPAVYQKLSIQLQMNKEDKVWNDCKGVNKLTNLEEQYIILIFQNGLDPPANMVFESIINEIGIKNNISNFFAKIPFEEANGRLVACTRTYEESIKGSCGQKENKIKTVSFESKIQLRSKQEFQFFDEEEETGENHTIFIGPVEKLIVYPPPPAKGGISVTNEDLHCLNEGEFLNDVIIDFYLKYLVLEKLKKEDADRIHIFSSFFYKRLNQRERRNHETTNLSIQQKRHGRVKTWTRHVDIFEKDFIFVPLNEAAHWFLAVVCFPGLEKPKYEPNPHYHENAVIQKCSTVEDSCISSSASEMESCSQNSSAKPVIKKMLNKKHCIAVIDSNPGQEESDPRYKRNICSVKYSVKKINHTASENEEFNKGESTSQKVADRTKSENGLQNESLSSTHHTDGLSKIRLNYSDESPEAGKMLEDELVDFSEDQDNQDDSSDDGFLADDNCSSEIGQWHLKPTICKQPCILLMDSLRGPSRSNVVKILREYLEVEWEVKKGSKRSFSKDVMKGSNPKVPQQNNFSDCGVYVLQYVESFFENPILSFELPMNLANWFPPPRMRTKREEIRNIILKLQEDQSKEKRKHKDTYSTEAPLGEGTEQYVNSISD
# [4] = target: T5, Sentrin-specific protease 8 (Homo sapiens, UniProt Q96LD8); format: functional;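 also: luminescence read-out of SENP8 inhibition, dose-response confirmation following an ultra-high-throughput screen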
# T5 sequence (Q96LD8 whole entry): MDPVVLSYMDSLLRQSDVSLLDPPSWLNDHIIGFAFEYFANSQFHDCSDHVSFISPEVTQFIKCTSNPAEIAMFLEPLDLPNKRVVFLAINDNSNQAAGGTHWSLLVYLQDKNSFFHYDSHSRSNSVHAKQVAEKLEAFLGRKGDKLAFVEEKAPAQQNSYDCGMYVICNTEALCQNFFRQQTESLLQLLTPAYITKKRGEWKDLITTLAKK
# [5] = target: T6, Rac GTPase-activating protein 1 (Homo sapiens, UniProt Q9H0H5); assay: blockers of MgcRacGAP-driven Rac1 GTP hydrolysis – biochemical, ADP Hunter fluorescence, primary and confirmatory, confirmation (AID 624330); format: functional
# T6 sequence (Q9H0H5 whole entry): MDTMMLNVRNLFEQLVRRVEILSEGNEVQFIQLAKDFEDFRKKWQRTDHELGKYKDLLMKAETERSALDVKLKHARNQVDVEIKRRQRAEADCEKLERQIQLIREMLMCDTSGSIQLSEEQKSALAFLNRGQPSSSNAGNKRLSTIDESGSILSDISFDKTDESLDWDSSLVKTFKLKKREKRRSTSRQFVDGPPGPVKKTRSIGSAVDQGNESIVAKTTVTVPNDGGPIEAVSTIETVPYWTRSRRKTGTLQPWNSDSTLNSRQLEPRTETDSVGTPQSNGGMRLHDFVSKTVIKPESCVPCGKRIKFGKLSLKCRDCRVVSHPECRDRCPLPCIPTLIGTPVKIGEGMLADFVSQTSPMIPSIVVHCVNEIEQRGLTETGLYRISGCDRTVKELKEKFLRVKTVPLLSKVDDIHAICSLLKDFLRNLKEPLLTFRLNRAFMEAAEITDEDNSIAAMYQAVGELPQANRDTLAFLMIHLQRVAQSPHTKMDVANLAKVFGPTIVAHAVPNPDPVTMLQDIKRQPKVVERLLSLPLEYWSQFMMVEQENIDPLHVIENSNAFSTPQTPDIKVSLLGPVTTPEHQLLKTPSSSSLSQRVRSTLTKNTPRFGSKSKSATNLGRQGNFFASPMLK
# [6] = bead-based luminescence quenchers, dual-tagged ARNT – biochemical, AlphaScreen, cherry-pick, artefact control for ARNT-TACC3 interaction inhibitor project, dose response (AID 651705); format: functional;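 also: AlphaScreen bead proximity signal that flags compounds interfering with the detection technology; potency reflects signal decrease which marks the compound as an assay artifact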
# Cysteine protease ATG4B = target: T7, Cysteine protease ATG4B (Homo sapiens, UniProt Q9Y4P1); format: functional;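 also: Fluorescence-based dose-response confirmation assay measuring inhibition of ATG4B activity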
# T7 sequence (Q9Y4P1 whole entry): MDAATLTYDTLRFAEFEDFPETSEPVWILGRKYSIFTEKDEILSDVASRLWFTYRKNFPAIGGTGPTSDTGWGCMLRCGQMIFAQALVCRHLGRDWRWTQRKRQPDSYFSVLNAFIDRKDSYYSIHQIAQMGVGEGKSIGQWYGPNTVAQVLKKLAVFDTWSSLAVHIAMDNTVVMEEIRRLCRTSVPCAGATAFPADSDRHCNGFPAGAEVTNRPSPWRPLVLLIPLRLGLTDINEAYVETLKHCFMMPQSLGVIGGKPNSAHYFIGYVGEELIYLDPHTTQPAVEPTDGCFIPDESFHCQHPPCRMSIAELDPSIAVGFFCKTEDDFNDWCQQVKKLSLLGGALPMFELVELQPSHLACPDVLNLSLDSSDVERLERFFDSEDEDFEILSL
# Phospholipase A2 = Phospholipase A2 (Homo sapiens, UniProt P04054); format: functional;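 also: confirmatory dose-response counterscreen on phospholipase A2, testing hits that came from an ultra-high-throughput screen for ATG4B inhibitors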
# Phospholipase A2, sequence (P04054 whole entry): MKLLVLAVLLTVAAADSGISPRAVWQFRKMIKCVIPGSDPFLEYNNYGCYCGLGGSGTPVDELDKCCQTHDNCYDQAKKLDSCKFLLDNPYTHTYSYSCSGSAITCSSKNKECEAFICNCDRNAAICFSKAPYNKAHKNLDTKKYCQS
# Nonstructural protein 1 = Nonstructural protein 1 (Influenza A virus, UniProt Q194T2); format: functional, Influenza A virus (A/California/07/2009(H1N1))
# Nonstructural protein 1, sequence (Q194T2 whole entry): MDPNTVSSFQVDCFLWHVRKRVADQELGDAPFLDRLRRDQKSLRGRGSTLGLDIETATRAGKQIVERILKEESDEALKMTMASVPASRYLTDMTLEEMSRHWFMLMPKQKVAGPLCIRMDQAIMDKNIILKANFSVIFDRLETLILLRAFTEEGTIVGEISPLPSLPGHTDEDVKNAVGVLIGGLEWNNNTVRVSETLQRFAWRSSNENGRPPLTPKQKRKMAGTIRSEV
# [7] = activation of miR-122 Renilla sensor silencing – cell-based, Huh7 psiCHECK-miR122, Renilla luciferase, cherry-picked, dose response (AID 651956); format: functional;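 also: huh7 hepatoma cells stably carrying a psiCHECK-2 miR-122 sensor plasmid; renilla luciferase signal reporting endogenous miR-122 activity after 48 h compound exposure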
# [8] = target: Ras and Rab interactor 1/Tyrosine-protein kinase ABL1 (Homo sapiens, UniProt P00519+Q13671); format: functional;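 also: biochemical TR-FRET dose-response test measuring inhibition of binding between Rin1 and Abl proteins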
# Ras and Rab interactor 1/Tyrosine-protein kinase ABL1, sequence (P00519 whole entry): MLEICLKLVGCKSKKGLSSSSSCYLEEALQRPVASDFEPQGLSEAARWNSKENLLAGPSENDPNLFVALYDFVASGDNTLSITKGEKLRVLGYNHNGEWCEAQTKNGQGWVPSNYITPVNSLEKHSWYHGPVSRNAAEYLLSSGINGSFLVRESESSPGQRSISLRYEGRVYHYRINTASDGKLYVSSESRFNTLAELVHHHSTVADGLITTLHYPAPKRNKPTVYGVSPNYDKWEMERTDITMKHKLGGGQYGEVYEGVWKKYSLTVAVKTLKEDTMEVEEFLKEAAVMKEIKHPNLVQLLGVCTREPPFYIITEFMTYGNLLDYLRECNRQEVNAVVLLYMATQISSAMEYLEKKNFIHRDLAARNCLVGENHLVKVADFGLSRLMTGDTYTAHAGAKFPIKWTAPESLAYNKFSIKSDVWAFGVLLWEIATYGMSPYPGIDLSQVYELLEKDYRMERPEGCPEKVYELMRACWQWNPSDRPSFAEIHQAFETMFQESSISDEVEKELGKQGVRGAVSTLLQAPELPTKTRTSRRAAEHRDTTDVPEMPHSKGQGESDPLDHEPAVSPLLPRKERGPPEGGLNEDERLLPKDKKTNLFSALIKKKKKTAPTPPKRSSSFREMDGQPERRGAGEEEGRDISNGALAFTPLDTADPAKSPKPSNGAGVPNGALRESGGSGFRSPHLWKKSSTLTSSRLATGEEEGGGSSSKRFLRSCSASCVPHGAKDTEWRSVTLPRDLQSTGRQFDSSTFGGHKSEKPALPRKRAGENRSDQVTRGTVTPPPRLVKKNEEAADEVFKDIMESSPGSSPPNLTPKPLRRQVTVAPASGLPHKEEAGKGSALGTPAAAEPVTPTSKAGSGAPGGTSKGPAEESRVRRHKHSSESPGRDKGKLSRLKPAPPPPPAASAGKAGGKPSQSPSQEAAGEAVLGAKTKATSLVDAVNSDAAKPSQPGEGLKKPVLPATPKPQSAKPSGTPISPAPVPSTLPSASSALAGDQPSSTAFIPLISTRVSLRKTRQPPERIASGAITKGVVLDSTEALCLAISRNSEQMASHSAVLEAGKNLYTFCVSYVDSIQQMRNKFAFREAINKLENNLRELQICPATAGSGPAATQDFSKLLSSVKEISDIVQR
# Ras and Rab interactor 1/Tyrosine-protein kinase ABL1, sequence (Q13671 whole entry): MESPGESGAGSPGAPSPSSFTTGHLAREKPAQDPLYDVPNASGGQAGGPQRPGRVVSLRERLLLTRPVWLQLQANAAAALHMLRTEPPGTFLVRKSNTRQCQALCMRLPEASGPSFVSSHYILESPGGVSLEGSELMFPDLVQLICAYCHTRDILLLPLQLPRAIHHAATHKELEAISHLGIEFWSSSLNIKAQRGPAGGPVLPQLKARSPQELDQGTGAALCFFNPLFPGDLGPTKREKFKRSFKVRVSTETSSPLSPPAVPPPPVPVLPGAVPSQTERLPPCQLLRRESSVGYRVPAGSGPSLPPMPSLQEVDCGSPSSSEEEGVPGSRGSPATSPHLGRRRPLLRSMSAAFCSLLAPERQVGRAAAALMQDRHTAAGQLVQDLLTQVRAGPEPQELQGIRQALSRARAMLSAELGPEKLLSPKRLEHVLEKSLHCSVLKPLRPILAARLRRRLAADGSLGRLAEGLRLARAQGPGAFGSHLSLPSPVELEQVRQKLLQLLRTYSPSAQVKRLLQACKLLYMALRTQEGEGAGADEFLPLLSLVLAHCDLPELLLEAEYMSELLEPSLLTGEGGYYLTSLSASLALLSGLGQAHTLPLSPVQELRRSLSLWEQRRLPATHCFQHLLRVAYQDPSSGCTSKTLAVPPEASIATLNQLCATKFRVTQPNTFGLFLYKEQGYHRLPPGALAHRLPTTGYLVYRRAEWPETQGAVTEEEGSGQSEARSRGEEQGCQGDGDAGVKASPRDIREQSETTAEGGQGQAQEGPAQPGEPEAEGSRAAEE
compound,measurement,setting,value
Oc1nc(SCc2ccc(Cl)cc2)nc2ccsc12,IC50,Caspase-3,15.2 µM (active)
same,IC50,[1],8.53 µM (active)
same,EC50,[2],21.9 µM (active)
same,IC50,[3],6.14 µM (active)
same,IC50,[4],68.7 µM (active)
CC(=O)Nc1ccc(Oc2nc(-c3ccccn3)nc3ccccc23)cc1,IC50,[5],43.5 µM (active)
same,AC50,[6],106 µM (active)
CC(C)(C)C(=O)Nc1ccccc1C(=O)NCCCn1ccnc1,AC50,[6],131 µM (active)
COc1ccc(Br)cc1CNC(=O)C1CCN(S(=O)(=O)N2CCC(C)CC2)CC1,IC50,Cysteine protease ATG4B,9.71 µM (active)
same,IC50,Phospholipase A2,6.6 µM (active)
CN1CCC(=O)N(CCOc2ccccc2)CC1,IC50,Nonstructural protein 1,18.9 µM (active)
same,AC50,[6],77.4 µM (active)
COc1ccc(CCNC(=O)c2c(C)cc(=O)oc2C)cc1OC,AC50,[7],57.6 µM (active)
Oc1ccc(Cl)cc1N=Nc1ccccc1,IC50,Caspase-3,23.6 µM (active)
same,IC50,[1],7.8 µM (active)
same,IC50,[3],35.4 µM (active)
same,IC50,[4],> 100 µM (inactive)
O=C1CNC(=O)/C1=C/NC12CC3CC(CC(C3)C1)C2,IC50,[8],19.4 µM (inactive)
Cc1ccc(-n2cc3ccc([N+](=O)[O-])cc3n2)cc1,IC50,Caspase-3,34.7 µM (active)
same,IC50,[1],12.5 µM (active)
same,EC50,[2],> 260 µM (inconclusive)
same,IC50,[3],17.2 µM (active)
same,IC50,[4],59.9 µM (active)
O=C(Nc1ccn(CCCN2CCN(Cc3ccc(F)cc3)CC2)c(=O)n1)OCc1ccccc1,IC50,[8],20 µM (inactive)
CC[C@]12c3[nH]c4ccc(OC)cc4c3CCN1C(=O)C(CC(=O)NCCCN(C)C)C[C@@H]2C(=O)N1CCN(C(=O)c2ccco2)CC1 (stereo partly specified),IC50,[8],35.3 µM (inactive)
CNC[C@@H]1Oc2cc(C#CC3CCCC3)ccc2S(=O)(=O)N([C@@H](C)CO)C[C@@H]1C,AC50,[7],4.31 µM (active)
